Counter-ions that a name gives are not always drawn.

Holding throughout (type): cell-based
The subject of series [1] is Fuchs' endothelial corneal dystrophy patient derived immortalized human corneal endothelial cells. Kind of series: Phase contrast microscope observation of cell damage after TGF-β2 stimulation (Examples 4-6). The conditions noted are these: then TGF-β2 10 ng/ml 24 h; for disorder in corneal endothelial cells (phase contrast microscope): pretreated 24 h. How it is done: (§1) The medium was removed from the culture dish in which Fuchs' endothelial corneal dystrophy patient derived immortalized human corneal endothelial cells were being cultured, and the cells were supplemented with 1× PBS (−) that was preheated to 37° C., and were washed. This was repeated twice. The cells were supplemented with 1× PBS (−) again and incubated for 5 minutes at 37° C. (5% CO2). After removing the PBS (−), the cells were supplemented with 0.05% Trypsin-EDTA (nacalai tesque, 32778-34) and incubated for 5 minutes at 37° C. (5% CO2). The cells were then suspended in a medium, and collected by centrifugation at 1500 rpm for 3 minutes. DMEM (nacalai tesque, 08456-36) +10% FBS (Sigma, 13H467)+1% P/S (nacalai tesque, 26252-94) was used as the medium.
Fuchs' endothelial corneal dystrophy patient derived immortalized human corneal endothelial cells (lot: iFECD3-5) were seeded on a 12-well plate at a ratio of 5.0×10^4 cells per well, and cultured for 24 hours at 37° C. (5% CO2). DMEM+10% FBS+1% P/S was used as the medium.
(§2) After 24 hours, the medium was removed, fluticasone furoate (AXON MEDCHEM, 1172) was added so that the final concentration was each 0.0001, 0.0003, 0.001, 0.003, 0.01, 0.03, 0.1, 0.3, 1, and 3 μM, and the cells were cultured for 24 hours. DMEM+2% FBS+1% P/S was used as the medium.
After 24 hours, the medium was removed, fluticasone furoate was added together with 10 ng/ml Transforming Growth Factor-82 Human recombinant (WAKO, 200-19911) so that the final concentration was each 0.0001, 0.0003, 0.001, 0.003, 0.01, 0.03, 0.1, 0.3, 1, and 3 μM, and the cells were cultured for 24 hours. Medium: DMEM+2% FBS+1% P/S
After 24 hours, cell morphology and apoptosis were observed using a phase difference microscope.
In this example, TGF-β inhibiting activity of ZK216348 (AXON MEDCHEM, AXON2239), which is one of SEGRMs, was tested. The operation by a phase contrast microscope was carried out in the same manner as Example 4. 10 μM of ZK216348 was used as the final concentration.
After 24 hours, the medium was removed, ZK216348 was added together with 10 ng/ml Transforming Growth Factor-β2 Human recombinant (WAKO, 200-19911) so that the final concentration was […], and the cells were cultured for 24 hours. DMEM+2% FBS+1% P/S was used as the medium.

For series [2], the system named is immortalized Fuchs' endothelial corneal dystrophy cells. Kind of series: Concentration-dependent caspase 3/7 activity under TGF-β2 stimulation (Example 3). The following applies: Homo sapiens, TGF-β2 10 ng/mL, 28 hours; for activity at 1 µM: agent 1 μM; for activity at 0.01 µM: agent 10 nM; for activity at 10 µM: agent 10 μM. How it is done:
7×10^3 immortalized Fuchs' endothelial corneal dystrophy cells were seeded on a 96-well plate and were cultured for 24 hours under the condition of 5% CO2 at 37° C.
After 28 hours under the condition of 5% CO2 at 37° C., cell morphology was observed using a phase difference microscope. Caspase 3/7 activity was then measured using Caspase-Glo 3/7 Assay (Promega, #G8091). DMEM+2% FBS+1% P/S was used as the medium. Caspase 3/7 activity and cell viability in this example were measured using GloMax-Multi Detection System (Promega, E7051).
Caspase 3/7 activity below 80% was used as a indicator indicating whether an agent can be used for treating or preventing a corneal endothelial condition, disorder, or disease, or whether an agent can be used as a caspase inhibitor (the underlines in FIG. 4A-1, FIG. 4A-2 and FIG. 4A-3, and FIG. 4B-1, FIG. 4B-2 and FIG. 4B-3).

Series [3] has as its system Fuchs' endothelial corneal dystrophy patient derived immortalized human corneal endothelial cells. The series can be described thus: Cell Titer-Glo Luminescent Cell Viability Assay (Examples 4-5). The following applies: all concentrations of 0.0001, 0.0003, 0.001, 0.003, 0.01, 0.03, 0.1, 0.3, 1, and 3 μM. The procedure:
as §1
Fuchs' endothelial corneal dystrophy patient derived immortalized human corneal endothelial cells (lot: iFECD3-5) were seeded on a 96-well plate at a ratio of 7×10^3 cells per well, and cultured at 37° C. (5% CO2) until reaching confluence. DMEM+10% FBS+1% P/S was used as the medium. […]
Cell viability was analyzed using Cell Titer-Glo Luminescent Cell Viability Assay by the following procedure.
The medium was discarded to achieve 50 μl per well. […] After being left still, 80 μl was transferred to Assay plate (Corning, 3912, Assay plate 96 well, white polystyrene) and […] was measured using GloMax-Multi Detection System (Promega, E7051). […]
Background: Cellular ATP, detected with luciferase, serves as a proxy for viable cell number.

The test system is the same in series [4]. The series can be described thus: Caspase-Glo 3/7 Assay after pretreatment and TGF-β2 stimulation (Examples 4-5). The conditions noted are these: for activity of Caspase 3/7: TGF-β2 10 ng/ml 24 h; for ratio of (caspase 3/7 activity)/(cell viability): agent concentration 0.0001 to 3 μM (FIG. 12). How it is done: as §1
Fuchs' endothelial corneal dystrophy patient derived immortalized human corneal endothelial cells (lot: iFECD3-5) were seeded on a 96-well plate at a ratio of 7×10^3 cells per well, and cultured at 37° C. (5% CO2) until reaching confluence. DMEM+10% FBS+1% P/S was used as the medium.
as §2
After 24 hours, the medium was removed, 10 ng/ml Transforming Growth Factor-82 Human recombinant (WAKO, 200-19911) and fluticasone furoate were added so that the final concentration was each 0.0001, 0.0003, 0.001, 0.003, 0.01, 0.03, 0.1, 0.3, 1, and 3 μM, and the cells were cultured for 24 hours. DMEM+2% FBS+1% P/S was used as the medium.
After observation, measurement of caspase 3/7 activity by Caspase-Glo 3/7 Assay was carried out with the following procedure.
The medium was discarded to achieve 50 μl per well. 50 μl/well of CaspaseGlo 3/7 Assay Reagent (mixture of Caspase-Glo 3/7 Assay Buffer and Caspase-Glo 3/7 Assay Substrate) (Promega, G8091) solution was added so as to achieve 1:1 with the medium. The operations hereafter were carried out while being shaded. A shaker was used to mix the content well for 2 minutes at about 120 r/min to then be left still for 40 minutes at room temperature. After being left still, 80 μl was transferred to Assay plate (Corning, 3912, Assay plate 96 well, white polystyrene) and […] was measured using GloMax-Multi Detection System (Promega, E7051). Furthermore, 10 μM Z-VD-FMK (WAKO, 262-02061), which is a caspase inhibitor, was used as the positive control.
In this example, TGF-β inhibiting activity of fluticasone propionate (AXON MEDCHEM, 1404), which is one of SEGRAs, was tested. The test was conducted by the same procedure as Example 4.

As for `Cc1noc(=O)c2ccc(NC(=O)C(O)(CC(C)(C)c3cccc4c3OCC4)C(F)(F)F)cc12` (single isomer, unassigned; (+)) [ZK216348, (+)-4-(2,3-dihydro-1-benzofuran-7-yl)-2-hydroxy-4-methyl-N-(4-methyl-1-oxo-2,3-benzoxazine-6-yl)-2-(trifluoromethyl)pentanamide], the “free cells and disorder in corneal endothelial cells (phase contrast microscope)” value in series [1] (pretreated, final concentration 10 μM) was “free cells were decreased and a disorder in corneal endothelial cells was suppressed”.

As to `CO[C@H]1/C=C/O[C@@]2(C)Oc3c(C)c(O)c4c(O)c(c(/C=N/N5CCN(C6CCCC6)CC5)c(O)c4c3C2=O)NC(=O)/C(C)=C\C=C\[C@H](C)[C@H](O)[C@@H](C)[C@@H](O)[C@@H](C)[C@H](OC(C)=O)[C@@H]1C` [Rifapentine], in series [2], the activity at 1 µM is at most 80%.

The compound `Cc1ccc(O)c([C@H](CCN(C(C)C)C(C)C)c2ccccc2)c1` [Tolterodine Tartrate] displayed an activity at 0.001 µM in series [2] (agent 1 nM) of at most 80%. Moreover, in series [2], the activity at 0.01 µM was at most 80%, the activity at 1 µM was at most 80% and the activity at 10 µM is at most 80%.

In series [2], `CC1(C)O[C@@H]2C[C@H]3[C@@H]4CCC5=CC(=O)C=C[C@]5(C)[C@@]4(F)[C@@H](O)C[C@]3(C)[C@]2(C(=O)CO)O1` [Triamcinolone Acetonide] returned an activity at 0.01 µM of at most 80%, an activity at 1 µM of at most 80% and an activity at 10 µM of at most 80%. The activity at 0.1 µM in series [2] (agent 100 nM) was at most 80%.

As for `C[C@@H]1C[C@H]2[C@@H]3C[C@H](F)C4=CC(=O)C=C[C@]4(C)[C@@]3(F)[C@@H](O)C[C@]2(C)[C@@]1(OC(=O)c1ccco1)C(=O)SCF` [fluticasone furoate], the “disorder in corneal endothelial cells (phase contrast microscope)” value in series [1] (0.0001 and 0.0003 μM) is “effect of suppressing a disorder in corneal endothelial cells was confirmed”; in series [1] (0.001, 0.003, 0.01, 0.03, 0.1, 0.3, 1, and 3 μM) it was “effectively suppressed”. Besides, the cell viability result in series [3] is recorded as “no significant difference from the Control group”. For the same compound, the “activity of Caspase 3/7” value is listed as “almost the same as those in the Control group” in series [4] (0.003, 0.01, 0.03, 0.1, 0.3, 1, and 3 μM); “decreased” in series [4] (in the order of 0.0001, 0.0003, and 0.001 μM). In addition, the “ratio of (caspase 3/7 activity)/(cell viability)” value in series [4] was “below 0.8”.

Take `CCC(=O)O[C@]1(C(=O)SCF)[C@H](C)C[C@H]2[C@@H]3C[C@H](F)C4=CC(=O)C=C[C@]4(C)[C@@]3(F)[C@@H](O)C[C@@]21C` [fluticasone propionate]: the “disorder in corneal endothelial cells (phase contrast microscope)” value in series [1] (0.0001, 0.0003, 1, and 3 μM) was “effect of suppressing a disorder in corneal endothelial cells was confirmed”; in series [1] (0.001, 0.003, 0.01, 0.03, and 0.1 μM), “effectively suppressed”. Moreover, the cell viability entry in series [3] was “no significant difference from the Control group”. Moreover, the “activity of Caspase 3/7” value in series [4] (0.01, 0.03, 0.1, 0.3, and 1 μM) is “almost the same as those in the Control group”; in series [4] (in the order of 0.0001, 0.0003, 0.001, and 0.003 μM), “decreased”. Further, the “ratio of (caspase 3/7 activity)/(cell viability)” value in series [4] was “below 0.8”.

Source of the values: patent US20200121652A1, “COMPOUNDS HAVING CASPASE INHIBITORY ACTIVITY, PHARMACEUTICAL AGENT CONTAINING SAID COMPOUNDS AND FOR TREATING OR PREVENTING CORNEAL ENDOTHELIAL SYMPTOMS, DISORDERS, OR DISEASES, AND APPLICATION OF SAID PHARMACEUTICAL AGENT” (The Doshisha, priority 2017, published 2020).
